Patent US20220267271A1, “WNT ACTIVATORS AND METHODS OF USE” (MAYO FOUNDATION FOR MEDICAL EDUCATION AND RESEARCH, priority 2019, published 2022)

What was measured:
[1] = test system: S. typhimuium and E. coli; experiment: Bacterial reverse mutation test, all tested strains (summary); design: species or system Salmonella typhimuium and Escherichia coli; conditions: 400 μM
Description: The bacterial reverse mutation test uses amino acid requiring strains of Salmonella typhimuium and Escherichia coli (E. coli) to detect chemical substances that can produce genetic damage and lead to gene mutations. The mutagenic potential of 1011 and 1015 and their metabolites was assessed by exposing bacterial strains to the compounds and evaluating at 400 μM, and evaluating the numbers of revertant colonies grown in the absence (trace quantities) of the amino acid.
Ames test: According to the OECD Guidelines For Testing Of Chemicals, experiments with the tested agents, positive and negative controls, were conducted in triplicates on 6 tester strains, S. typhimurium: TA98, TA100, TA1535, TA1537 and E. coli: wp2[pKM101]+wp2 uvrA mixed 1:2. Dimethyl sulfoxide (DMSO) was used as the vehicle control for all tester strains in mutagenicity assay with and without metabolic activation. […]
The tester strain (10 μl of overnight culture) was mixed with the test agent (10 μl of the DMSO stock) and GM liquid medium (30 μl) or S9 mix (30 μl). […] The results were expressed as number of revertant colonies per plate. […]

[2] = test system: E. coli: wp2[pKM101]+wp2 uvrA; experiment: Ames test, bacterial reverse mutation assay, E. coli; design: species or system Escherichia coli; conditions: 1011 and 1015 at 400 μM, mean ± SD, n = 3
Description: (§1) Ames test: According to the OECD Guidelines For Testing Of Chemicals, experiments with the tested agents, positive and negative controls, were conducted in triplicates on 6 tester strains, S. typhimurium: TA98, TA100, TA1535, TA1537 and E. coli: wp2[pKM101]+wp2 uvrA mixed 1:2. Dimethyl sulfoxide (DMSO) was used as the vehicle control for all tester strains in mutagenicity assay with and without metabolic activation. Compounds with known mutagenic activity were used as the positive controls in mutagenicity assay without metabolic activation: 2-nitrofluorene (0.1 μg/plate) for TA98, 4-nitroquinoline N-oxide (0.1 μg/plate) for TA100, sodium azide (0.2 μg/plate) for TA1535, 9-aminoacridine (7.5 μg/plate) for TA1537, and 4-nitroquinoline N-oxide (0.1 μg/plate) for E. coli. 2-Aminoantracene in final concentration 0.4 μg/ml was used as the positive control (the solution of 2-aminoantracene in DMSO was prepared immediately before experiment) in test with metabolic activation. For each experiment tester strain cultures were grown overnight in Oxoid nutrient broth #2 at 37° C. with shaking at 235 rpm to a density of 1-2×10^9 colony forming units/ml (OD600˜1.5). The S9 mix, which is consist of 9000 g supernatant fraction of rat liver homogenate (S9 fraction), was prepared immediately prior to its use in experimental procedure.
(§2) The tester strain (10 μl of overnight culture) was mixed with the test agent (10 μl of the DMSO stock) and GM liquid medium (30 μl) or S9 mix (30 μl). Then, 200 μl of molten top agar supplemented with histidine/biotin (final concentration 0.05 mM) for S. typhimurium and tryptophan (final concentration 0.025 mM) for E. coli were added to the tube (top agar was kept at 44° C. to prevent hardening). The mixed suspension was poured onto the surface of a GM agar plate (2.0 ml of GM agar per plate). After the top agar solidified, the plates were inverted and incubated at 37° C. for 48 hours. The results were expressed as number of revertant colonies per plate. The final concentrations of the test compounds in the mutagenicity assay with all tester strains in both the presence and absence of S9 mix were 400 μM. All concentrations were tested in triplicates.

S. typhimurium TA1537 = experiment: Ames test, bacterial reverse mutation assay, TA1537; design: species or system Salmonella typhimuium; conditions: 1011 and 1015 at 400 μM, mean ± SD, n = 3
Description: as §1, §2

[3] = test system: E. coli strain TOP10-pTac-lux-CDABE; experiment: Bacterial cytotoxicity evaluation (luminescence); conditions: 6.25-400 μM, 4 h
Description: In addition, bacterial cytotoxicity evaluation was performed using E. coli strain TOP10-pTac-lux-CDABE, expressing both luciferase (a heterodimer of LuxA and LuxB subunits) and the enzymes required for the production of luciferase substrate (LuxC, LuxD and LuxE). For the experiment, bacterial culture was grown overnight in LB medium at 37° C. with shaking at 250 rpm. The overnight culture was diluted 1:666 into fresh LB medium supplemented with 50 μg/ml kanamycin and incubated at 37° C. and 250 rpm to OD600 0.4-0.5. Serial dilutions of the test compounds in DMSO were prepared (40 mM, 20 mM, 10 mM, 5 mM, 2.5 mM, 1.25 mM, 0.625 mM) and 4 μl aliquots of each solution were transferred into 96-well plate and mixed with 96 μl of 0.9% NaCl. Then, 10 μl of the dilutions were dispensed into the appropriate wells of 384-well white screening microplate. 30 μl aliquots of freshly grown bacterial culture at OD600 of 0.4-0.5 were added to each well with compounds' dilutions (Final concentration of the test compounds were 400 μM, 200 μM, 100 μM, 50 μM, 25 μM, 12.5 μM, 6.25 μM). The plate was incubated for 4 h at 37° C. and the luminescence.

TCF/LEF reporter = conditions: with Wnt3A; cited from earlier work
β-catenin = experiment: Cytosolic free β-catenin level in HEK293 cells; type: cell-based
Source text: Niclosamide (5-chloro-N-[2-chloro-4-nitrophenyl]-2-hydroxy benzamide), an FDA approved antihelminthic drug, suppresses Wnt/β-catenin signaling by inducing Wnt co-receptor LRP6 degradation in cancer cells. […] CI-994 is an orally active class I histone deacetylase (HDAC) inhibitor [37]. CI-994 increased Wnt reporter activity (FIG. 2B) and cytosolic free β-catenin level in HEK293 cells.

[4] = with metabolic activation (S9 mix)

Compound | mutagenic effects of test compounds and their metabolites [1] | Number of revertant colonies per plate, E. coli [2, 4] | Number of revertant colonies per plate, E. coli ([2]; without metabolic activation) | Number of revertant colonies per plate, TA1537 (S. typhimurium TA1537; [4]) | Number of revertant colonies per plate, TA1537 (S. typhimurium TA1537; without metabolic activation) | cytotoxicity for bacterial cells [3] | activity of the TCF/LEF reporter (TCF/LEF reporter) | cytosolic free β-catenin level (β-catenin)
CC1CCCC(C)N1CCNC(=O)c1ccc(C(=O)Nc2ccccc2N)nc1 (centres unmarked) [Compound 1011] | no mutagenic effects | 9.7 ± 3.2 revertant colonies per plate | 8.7 ± 2.1 revertant colonies per plate | 0.0 ± 0.0 revertant colonies per plate | 0.7 ± 0.6 revertant colonies per plate | no cytotoxicity |  | 
CC(=O)Nc1ccc(C(=O)Nc2ccccc2N)cc1 [CI-994, 4-(acetylamino)-N-(2-aminophenyl)benzamide, reference compound] |  |  |  |  |  |  | able to synergize with Wnt3A to activate | increased
Nc1ccccc1NC(=O)c1ccc(C(=O)NCC2CCN2C2CCCC2)cn1 (centres unmarked) [Compound 1015] | no mutagenic effects | 9.0 ± 2.7 revertant colonies per plate | 5.3 ± 4.7 revertant colonies per plate | 0.0 ± 0.0 revertant colonies per plate | 0.0 ± 0.0 revertant colonies per plate | no cytotoxicity |  | 
